# In US10517889B2, “Modulators of SMAD7 expression” (Ionis Pharmaceuticals, Inc., priority 2017, dated 2019):
# Strand notation (5' to 3'): a small letter for the sugar, then the base; units joined by * are phosphorothioate-linked, units joined directly phosphodiester-linked; [ ] holds rarer units or linkages, { } end groups; capitals alone tell only the bases. e = 2'-O-(2-methoxyethyl) (MOE); [5mC] = 5-methylcytosine; d = 2'-deoxy (DNA)
# Tested on: human SMAD7 mRNA
# Test: Antisense inhibition of human SMAD7 mRNA expression in Hep3B cells by 5-10-5 MOE gapmers, single concentration, electroporation, RT-PCR (Example 1, Study 1 and 2)
# Format: cell-based
# Settings: Study 2, electroporation with 15,000 nM antisense oligonucleotide, 5-10-5 MOE gapmers targeting SEQ ID NO: 1 and 2
# Outline: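 Readout is percent SMAD7 mRNA inhibition versus untreated cells, measured by qRT-PCR (RTS5062) and corrected for total RNA by RIBOGREEN. Oligonucleotide, 5,000 nM or 15,000 nM, was delivered by electroporation into Hep3B cells at 20,000 per well. RNA was collected about 24 h later.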
Substance,% Inhibition [%],% inhibition of SMAD7 mRNA expression [%]
771377 (antisense eT*eA*eA*eG*e[5mC]*dA*d[5mC]*dG*d[5mC]*dT*d[5mC]*dT*dA*dA*dA*e[5mC]*eA*eG*e[5mC]*eA) [compound 771377],0,–
771724 (antisense e[5mC]*e[5mC]*eT*eT*e[5mC]*dT*d[5mC]*d[5mC]*d[5mC]*dA*dG*dA*dA*d[5mC]*d[5mC]*eT*eT*eG*eG*e[5mC]) [compound 771724],27,–
771807 (antisense eG*e[5mC]*e[5mC]*e[5mC]*eT*d[5mC]*dA*d[5mC]*dT*d[5mC]*d[5mC]*dA*d[5mC]*dA*dA*eT*eG*eG*e[5mC]*eA) [compound 771807],51,–
771367 (antisense e[5mC]*eT*eT*eG*eA*dT*dG*d[5mC]*dT*dG*dA*dT*dT*dA*dT*eT*eA*eA*eT*eG) [compound 771367],0,–
771783 (antisense e[5mC]*e[5mC]*e[5mC]*eT*eT*d[5mC]*dA*dG*dA*dG*dA*dG*dT*d[5mC]*dA*e[5mC]*eT*eG*e[5mC]*eT) [compound 771783],49,–
771370 (antisense e[5mC]*eA*eT*eT*e[5mC]*d[5mC]*dA*dA*dA*dA*dG*dG*d[5mC]*dT*dG*eA*e[5mC]*eT*e[5mC]*eG) [compound 771370],18,–
771790 (antisense e[5mC]*eA*eA*eA*eA*d[5mC]*dT*d[5mC]*dT*d[5mC]*dT*dG*d[5mC]*d[5mC]*d[5mC]*eT*eG*eG*eA*e[5mC]) [compound 771790],36,–
771540 (antisense eT*e[5mC]*eA*eT*eA*dA*dG*d[5mC]*dT*dA*dT*dT*dT*d[5mC]*dT*e[5mC]*eA*eA*eA*eG) [compound 771540],–,0
771542 (antisense eA*e[5mC]*eA*eA*eT*dT*d[5mC]*dT*dT*dT*dT*d[5mC]*dA*dT*dA*eA*eG*e[5mC]*eT*eA) [compound 771542],–,0
771679 (antisense eG*e[5mC]*eA*eT*e[5mC]*dT*dT*dT*dT*d[5mC]*dT*dT*dT*dA*dT*eT*eT*eT*eT*e[5mC]) [compound 771679],–,0
771591 (antisense e[5mC]*eA*eG*eA*eA*dG*d[5mC]*d[5mC]*dT*dG*dT*dG*dG*dA*d[5mC]*eA*eG*eG*e[5mC]*e[5mC]) [compound 771591],–,50
771684 (antisense eA*eT*eT*eT*eG*dG*d[5mC]*dA*dT*dT*dT*dG*dT*dT*dA*eT*eT*eT*eG*e[5mC]) [compound 771684],–,0
771493 (antisense e[5mC]*eG*eG*eG*e[5mC]*dA*dG*d[5mC]*dT*dG*d[5mC]*dT*dG*dA*dT*eG*eA*eA*e[5mC]*eT) [compound 771493],–,17
771566 (antisense eG*eA*e[5mC]*eA*e[5mC]*dA*dA*dA*dA*d[5mC]*dA*dA*dA*dG*dA*eG*e[5mC]*eA*e[5mC]*eG) [compound 771566],–,28
771559 (antisense eA*eA*eG*eT*eG*dA*dA*dA*dT*dG*dA*dT*dG*dA*d[5mC]*e[5mC]*eG*e[5mC]*e[5mC]*e[5mC]) [compound 771559],–,49
771798 (antisense eG*eA*e[5mC]*eA*e[5mC]*dA*dT*d[5mC]*d[5mC]*dA*dT*dG*dT*d[5mC]*d[5mC]*eA*eA*eG*e[5mC]*eA) [compound 771798],17,–
771823 (antisense e[5mC]*eT*eT*e[5mC]*e[5mC]*d[5mC]*dA*dT*dG*dT*dG*dA*d[5mC]*d[5mC]*dT*e[5mC]*eA*eG*eG*eG) [compound 771823],49,–
771780 (antisense eA*e[5mC]*eA*eA*eA*d[5mC]*d[5mC]*dT*dT*d[5mC]*d[5mC]*dG*dA*dA*dA*eG*eG*eA*e[5mC]*e[5mC]) [compound 771780],20,–
771551 (antisense eA*eT*eT*eT*e[5mC]*dT*dG*d[5mC]*dT*dT*d[5mC]*d[5mC]*d[5mC]*d[5mC]*dT*e[5mC]*eT*eT*e[5mC]*e[5mC]) [compound 771551],–,18
771719 (antisense eA*e[5mC]*eT*eG*eA*d[5mC]*dT*dT*dG*d[5mC]*dA*dG*dG*dT*dG*eA*e[5mC]*eT*eG*eG) [compound 771719],35,–

# Same assay, conditions: electroporation with 15,000 nM antisense oligonucleotide (Study 2), 5-10-5 MOE gapmers targeting SEQ ID NO: 1 and 2
Substance,% Inhibition of SMAD7 mRNA [%],% inhibition of SMAD7 mRNA expression [%]
771449 (eT*e[5mC]*eG*e[5mC]*eA*dG*dA*dG*dT*d[5mC]*dG*dG*d[5mC]*dT*dA*eA*eG*eG*eT*eG; antisense) [compound 771449],4,–
771689 (antisense eA*eG*eT*eG*eT*dA*d[5mC]*dA*dT*dT*dT*dT*dA*dA*dA*eA*eA*eT*e[5mC]*eG) [compound 771689],–,30
771536 (antisense eA*eG*e[5mC]*eG*eA*dA*dA*d[5mC]*dA*dA*dA*dA*d[5mC]*dA*dG*eA*eA*e[5mC]*eA*e[5mC]) [compound 771536],25,–
771872 (antisense eT*e[5mC]*e[5mC]*e[5mC]*e[5mC]*d[5mC]*dA*d[5mC]*d[5mC]*dG*d[5mC]*dG*d[5mC]*dA*dG*eG*eG*eA*e[5mC]*eA) [compound 771872],11,–
771602 (antisense eG*eG*eA*eG*eA*dT*d[5mC]*d[5mC]*dA*dG*dG*dA*dG*d[5mC]*dA*eG*eA*eT*eG*eG) [compound 771602],–,39
771920 (antisense eT*eT*eA*eT*eT*dT*dA*dA*dT*dT*dA*d[5mC]*d[5mC]*d[5mC]*dT*eG*e[5mC]*eT*e[5mC]*eA) [compound 771920],33,–
771681 (antisense eT*eT*eT*eG*e[5mC]*dA*dT*dT*dT*dA*dT*dA*dT*dT*dA*eA*eA*eG*e[5mC]*eA) [compound 771681],–,0
771625 (antisense eG*e[5mC]*eT*eT*eA*dA*d[5mC]*dA*d[5mC]*dA*d[5mC]*dA*dG*dG*dA*eT*eG*eG*eG*eA) [compound 771625],–,48

# Same assay, conditions: electroporation, 15,000 nM antisense oligonucleotide (Study 2), 5-10-5 MOE gapmers targeting SEQ ID NO: 1 and 2
row,Substance,% inhibition of SMAD7 mRNA expression [%]
1,771449 (eT*e[5mC]*eG*e[5mC]*eA*dG*dA*dG*dT*d[5mC]*dG*dG*d[5mC]*dT*dA*eA*eG*eG*eT*eG; antisense) [compound 771449],0
2,771833 (antisense eT*eT*eA*eA*eA*dG*dA*dA*dA*dA*dT*dG*dG*d[5mC]*d[5mC]*eT*eA*e[5mC]*eA*eT) [compound 771833],21
3,771753 (antisense eG*eT*e[5mC]*e[5mC]*eA*dT*dG*dA*dA*d[5mC]*d[5mC]*dA*d[5mC]*dA*dA*e[5mC]*eT*e[5mC]*eA*eT) [compound 771753],50
4,771536 (antisense eA*eG*e[5mC]*eG*eA*dA*dA*d[5mC]*dA*dA*dA*dA*d[5mC]*dA*dG*eA*eA*e[5mC]*eA*e[5mC]) [compound 771536],0
5,771529 (antisense e[5mC]*eG*eA*e[5mC]*e[5mC]*dA*dA*dA*dG*dA*dG*dT*dT*dT*dG*e[5mC]*eA*eT*eG*eA) [compound 771529],0
6,771872 (antisense eT*e[5mC]*e[5mC]*e[5mC]*e[5mC]*d[5mC]*dA*d[5mC]*d[5mC]*dG*d[5mC]*dG*d[5mC]*dA*dG*eG*eG*eA*e[5mC]*eA) [compound 771872],0
7,771513 (antisense eA*eG*e[5mC]*eA*eA*dA*dG*dT*dA*dG*dT*dT*dT*dG*dA*eA*eG*eT*eG*eT) [compound 771513],34
8,771920 (antisense eT*eT*eA*eT*eT*dT*dA*dA*dT*dT*dA*d[5mC]*d[5mC]*d[5mC]*dT*eG*e[5mC]*eT*e[5mC]*eA) [compound 771920],13
9,771738 (antisense eG*eA*eG*e[5mC]*eT*dT*d[5mC]*d[5mC]*dT*dA*dA*dG*dT*dA*d[5mC]*eT*eG*eT*eT*eA) [compound 771738],14
10,771801 (antisense eA*e[5mC]*e[5mC]*eT*eA*d[5mC]*dA*dA*d[5mC]*dT*d[5mC]*dA*d[5mC]*dA*dA*eG*eG*eG*eA*eG) [compound 771801],31
11,771697 (antisense e[5mC]*eA*e[5mC]*eT*e[5mC]*dT*d[5mC]*d[5mC]*d[5mC]*dA*dG*dG*dA*dG*dG*eG*eT*eA*eT*eG) [compound 771697],5
12,771410 (eG*e[5mC]*eT*e[5mC]*eG*d[5mC]*d[5mC]*dT*d[5mC]*d[5mC]*dT*d[5mC]*d[5mC]*dT*d[5mC]*e[5mC]*eA*e[5mC]*e[5mC]*eT; antisense) [compound 771410],37
13,771842 (antisense eT*eT*eG*eT*eG*dT*dT*dA*dT*dG*dA*dA*dA*dA*d[5mC]*eA*eA*eA*eA*e[5mC]) [compound 771842],6
14,771499 (antisense eG*e[5mC]*eT*eA*e[5mC]*d[5mC]*dG*dG*d[5mC]*dT*dG*dT*dT*dG*dA*eA*eG*eA*eT*eG) [compound 771499],1

# Same assay, conditions: electroporation, 15,000 nM, approximately 24 hours, relative to untreated control cells, gapmers targeting SEQ ID NO: 1 and 2
row,Substance,% inhibition of SMAD7 mRNA expression [%]
1,771725 (antisense e[5mC]*eT*eT*eG*eA*dG*dG*dG*dA*dG*d[5mC]*dT*dG*dG*dT*eA*eG*eA*eG*eT) [compound 771725],8
2,771462 (antisense e[5mC]*eT*eG*eG*eA*d[5mC]*dA*d[5mC]*dA*dG*dT*dA*dG*dA*dG*e[5mC]*e[5mC]*eT*e[5mC]*e[5mC]) [compound 771462],31
3,771557 (antisense eA*eT*eG*eA*e[5mC]*d[5mC]*dG*d[5mC]*d[5mC]*d[5mC]*d[5mC]*d[5mC]*d[5mC]*dT*dT*e[5mC]*eA*eT*eA*e[5mC]) [compound 771557],19
4,771422 (eA*eT*e[5mC]*e[5mC]*eA*dG*d[5mC]*d[5mC]*d[5mC]*dT*dG*d[5mC]*d[5mC]*d[5mC]*dG*eG*eG*e[5mC]*e[5mC]*eG; antisense) [compound 771422],27
5,771352 (antisense eT*e[5mC]*e[5mC]*eA*eA*d[5mC]*dT*d[5mC]*dT*d[5mC]*dT*dT*dT*dG*d[5mC]*e[5mC]*e[5mC]*e[5mC]*eA*eA) [compound 771352],54
6,771486 (antisense e[5mC]*eG*eG*eT*eA*dA*dA*dG*d[5mC]*d[5mC]*d[5mC]*dG*dT*d[5mC]*d[5mC]*eA*e[5mC]*eG*eG*e[5mC]) [compound 771486],52
